Reference: patent publication US11912701B2, “Protein kinase inhibitors for promoting liver regeneration or reducing or preventing hepatocyte death” (HEPAREGENIX GMBH, priority 2018, dated 2024)
Like-named read-outs stand apart in the source and are kept apart here.

How the values were obtained:
MKK4 [1] = molecular target: T1, MKK4 (Homo sapiens, UniProt P45985); experiment: KINOMEscan competition binding assay, MKK4; settings: residual percent of control binding (PoC) at 100 nM
T1 construct: S84/D399; host or cells: HEK-293
T1 sequence (P45985 84-399): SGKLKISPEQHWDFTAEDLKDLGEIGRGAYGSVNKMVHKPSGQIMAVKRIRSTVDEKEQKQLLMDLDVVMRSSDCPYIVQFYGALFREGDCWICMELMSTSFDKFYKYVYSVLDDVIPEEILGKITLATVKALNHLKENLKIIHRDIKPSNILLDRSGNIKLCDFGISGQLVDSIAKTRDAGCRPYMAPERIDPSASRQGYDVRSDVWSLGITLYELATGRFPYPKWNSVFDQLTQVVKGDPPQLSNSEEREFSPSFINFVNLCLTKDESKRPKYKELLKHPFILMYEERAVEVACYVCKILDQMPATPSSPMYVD
Experimental: (§1) The assay was performed by combining three components: DNA-tagged kinase; immobilized ligand; and a test compound. The ability of the test compound to compete with the immobilized ligand was measured via quantitative PCR of the DNA tag. The technology is described in detail in Fabian, M. A. et al. A small molecule-kinase interaction map for clinical kinase inhibitors. Nat. […] Nat.
(§2) For investigation of the affinity to MKK4, BRaf, MKK7 and JNK1, the kinases were produced in HEK-293 cells and subsequently tagged with DNA for qPCR detection. […] The liganded beads were blocked with excess biotin and washed with blocking buffer (SEABLOCK™ (Pierce), 1% BSA, 0.05% TWEEN®20, 1 mM DTT) to remove unbound ligand and to reduce nonspecific binding. […] All reactions were performed in polystyrene 96-well plates in a final volume of 0.135 mL. […] The kinase concentration in the eluates was measured by qPCR.
(§3) The test compounds were provided as 10 mM stock solutions. The test solutions at indicated final concentrations were prepared at DiscoverX.
Potency of representative examples against the protein kinases MKK4, BRaf, MKK7 and JNK1 expressed as residual percent of control binding (PoC), was determined at a concentration of 100 nM. The determined potencies are categorized as follows: […]

BRaf = molecular target: T2, BRaf (Homo sapiens, UniProt P15056); experiment: KINOMEscan competition binding assay, BRaf; settings: ratio PoC (off-target)/PoC (MKK4)
T2 construct: purchased ProQinase GmbH, Freiburg, Germany (33PanQinase Assay Service)
Experimental: as §1, §2, §3
(§4) Potency of representative examples against the protein kinases MKK4, BRaf, MKK7 and JNK1 expressed as residual percent of control binding (PoC), was determined at a concentration of 100 nM. The determined potencies are categorized as follows:
(§5) The binding selectivity of representative examples against the protein kinases BRaf, MKK7 and JNK1, altogether denominated as “off-targets” is determined by the ratios of PoC (off-target)/PoC (MKK4).

MKK4 [2] = molecular target: T3, MKK4 (Homo sapiens, UniProt P45985); experiment: 33PanQinase enzyme assay, MKK4; format: biochemical; settings: for remaining activity at 0.1 µM: read-out: Potency MKK4 (residual activity, assay at single concentration)
T3 construct: purchased ProQinase GmbH, Freiburg, Germany (33PanQinase Assay Service)
T3 sequence (P45985 1-399): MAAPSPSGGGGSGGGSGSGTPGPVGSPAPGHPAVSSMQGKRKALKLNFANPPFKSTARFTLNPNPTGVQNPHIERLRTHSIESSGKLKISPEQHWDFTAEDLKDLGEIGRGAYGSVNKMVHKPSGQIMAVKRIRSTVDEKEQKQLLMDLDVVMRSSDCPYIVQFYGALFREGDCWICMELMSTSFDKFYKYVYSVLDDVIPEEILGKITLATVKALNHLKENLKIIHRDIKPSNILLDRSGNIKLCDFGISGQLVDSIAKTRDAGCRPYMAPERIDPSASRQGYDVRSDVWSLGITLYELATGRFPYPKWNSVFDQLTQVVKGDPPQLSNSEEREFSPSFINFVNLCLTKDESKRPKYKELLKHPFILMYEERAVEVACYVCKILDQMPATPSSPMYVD
How it was run: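 Inhibition measured as 33Pi transfer to substrate after a 60-min, 30 °C reaction, acid-stopped and scintillation-counted.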

MKK7 = molecular target: T4, MKK7 (Homo sapiens, UniProt O14733); experiment: KINOMEscan competition binding assay, MKK7; design: M1/R419; host or cells: HEK-293; settings: ratio PoC (off-target)/PoC (MKK4)
T4 sequence (O14733 1-419): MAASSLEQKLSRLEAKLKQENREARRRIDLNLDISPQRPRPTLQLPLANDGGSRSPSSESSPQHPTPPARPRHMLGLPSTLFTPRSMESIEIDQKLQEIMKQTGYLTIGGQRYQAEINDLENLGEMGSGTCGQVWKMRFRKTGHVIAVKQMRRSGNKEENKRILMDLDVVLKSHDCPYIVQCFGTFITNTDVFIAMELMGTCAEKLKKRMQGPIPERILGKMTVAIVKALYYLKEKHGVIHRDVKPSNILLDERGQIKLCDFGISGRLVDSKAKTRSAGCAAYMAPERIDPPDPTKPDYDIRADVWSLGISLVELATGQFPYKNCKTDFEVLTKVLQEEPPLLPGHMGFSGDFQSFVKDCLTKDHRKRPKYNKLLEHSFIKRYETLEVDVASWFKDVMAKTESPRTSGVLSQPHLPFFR
Experimental: as §1, §2, §3, §4, §5

JNK1 = JNK1 (Homo sapiens, UniProt P45983); experiment: KINOMEscan competition binding assay, JNK1; design: M1/Q384; host or cells: HEK-293; settings: ratio PoC (off-target)/PoC (MKK4)
Experimental: as §1, §2, §3, §4, §5

T2 sequence (P15056 whole entry, species assumed): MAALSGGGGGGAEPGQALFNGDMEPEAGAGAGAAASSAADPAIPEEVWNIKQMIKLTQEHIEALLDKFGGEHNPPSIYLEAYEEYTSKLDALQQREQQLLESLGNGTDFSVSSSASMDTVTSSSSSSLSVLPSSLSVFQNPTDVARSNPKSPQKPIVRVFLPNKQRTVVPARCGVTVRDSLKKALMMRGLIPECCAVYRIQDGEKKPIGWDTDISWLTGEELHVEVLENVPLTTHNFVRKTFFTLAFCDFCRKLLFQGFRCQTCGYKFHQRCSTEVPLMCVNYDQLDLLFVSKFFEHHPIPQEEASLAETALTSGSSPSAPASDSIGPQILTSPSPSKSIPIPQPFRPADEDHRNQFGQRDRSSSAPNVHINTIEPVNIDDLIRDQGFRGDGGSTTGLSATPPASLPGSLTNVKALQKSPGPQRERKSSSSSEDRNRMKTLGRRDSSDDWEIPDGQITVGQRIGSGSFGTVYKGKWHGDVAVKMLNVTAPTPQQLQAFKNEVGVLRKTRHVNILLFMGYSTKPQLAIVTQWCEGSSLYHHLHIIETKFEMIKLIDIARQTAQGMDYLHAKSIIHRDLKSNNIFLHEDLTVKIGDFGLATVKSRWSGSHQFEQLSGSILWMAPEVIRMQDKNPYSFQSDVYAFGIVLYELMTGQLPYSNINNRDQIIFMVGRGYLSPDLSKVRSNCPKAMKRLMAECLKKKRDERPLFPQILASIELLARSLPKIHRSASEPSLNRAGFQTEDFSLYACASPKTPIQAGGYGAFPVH
Sequence of JNK1 (P45983 1-384 isoform P45983-2): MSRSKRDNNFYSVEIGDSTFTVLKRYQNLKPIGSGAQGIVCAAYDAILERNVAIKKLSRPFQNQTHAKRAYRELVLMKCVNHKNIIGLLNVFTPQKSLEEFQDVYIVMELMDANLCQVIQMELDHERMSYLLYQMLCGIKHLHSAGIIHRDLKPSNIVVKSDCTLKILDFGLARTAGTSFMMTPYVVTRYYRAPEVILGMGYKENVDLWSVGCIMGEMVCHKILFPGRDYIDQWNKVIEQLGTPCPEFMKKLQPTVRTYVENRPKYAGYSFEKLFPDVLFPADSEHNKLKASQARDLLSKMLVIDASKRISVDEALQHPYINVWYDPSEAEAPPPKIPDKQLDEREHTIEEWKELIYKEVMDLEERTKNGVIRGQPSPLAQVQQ

Row | SMILES | MKK4 [% Ctrl @ 100 nM (MKK4 [1]) | selectivity based on % Ctrl @100 nM vs. Braf (BRaf) | remaining activity at 0.1 µM (MKK4 [2]) | selectivity based on % Ctrl @100 nM vs. MKK7 (MKK7) | selectivity based on % Ctrl @100 nM vs. JNK1 (JNK1) | IC50 (MKK4 [2]; assay 'IC50', read-out: Potency MKK4 (IC50)) | remaining activity at 0.1 µM (MKK4 [2]; single concentration 100 nM)
1 | Cc1ccc(CS(=O)(=O)Nc2ccc(F)c(C(=O)c3c[nH]c4ncc(-c5ccc(Cl)cc5)cc34)c2F)cc1 [Example 38, N-(3-(5-(4-chlorophenyl)-1H-pyrrolo[2,3-b]pyridine-3-carbonyl)-2,4-difluoro-phenyl)-1-(p-tolyl)methanesulfonamide] | + (3 ≤ PoC < 30) | + (10 ≥ ratio > 3) | 70 to 90% | + (10 ≥ ratio > 3) | + (10 ≥ ratio > 3) | – | –
2 | CCCS(=O)(=O)Nc1ccc(Br)c(C(=O)c2c[nH]c3ncc(-c4ccc(Cl)cc4)cc23)c1F [Example 60, N-(4-bromo-3-(5-(4-chlorophenyl)-1H-pyrrolo[2,3-b]pyridine-3-carbonyl)-2-fluorophenyl)propane-1-sulfonamide] | + (3 ≤ PoC < 30) | ++ (100 ≥ ratio > 10) | – | ++ (100 ≥ ratio > 10) | ++ (100 ≥ ratio > 10) | 1 to 10 µM | –
3 | O=C(c1c(F)ccc(NS(=O)(=O)Cc2ccccc2)c1F)c1c[nH]c2ncc(-c3ccc(OCC(O)CO)cc3)cc12 (centres unmarked) [Example 40, N-(3-(5-(4-(2,3-dihydroxypropoxy)phenyl)-1H-pyrrolo [2,3-b]pyridine-3-carbonyl)-2,4-difluorophenyl)-1-phenylmethanesulfonamide] | +++ (PoC < 1) | +++ (Ratio > 100) | – | +++ (Ratio > 100) | +++ (Ratio > 100) | – | 70 to 90%
4 | COc1ccc(-c2cnc3[nH]cc(C(=O)c4c(F)ccc(NS(=O)(=O)Cc5ccccc5)c4F)c3c2)cc1 [Example 26, N-(2,4-difluoro-3-(5-(4-methoxyphenyl)-1H-pyrrolo[2,3-b]pyridine-3-carbonyl)phenyl)-1-phenylmethanesulfonamide] | ++ (1 ≤ PoC < 3) | ++ (100 ≥ ratio > 10) | – | ++ (100 ≥ ratio > 10) | ++ (100 ≥ ratio > 10) | – | –
5 | CCCS(=O)(=O)Nc1ccc(F)c(C(=O)c2c[nH]c3ncc(-c4ccc(OCC5COC(C)(C)O5)cc4)cc23)c1F (centres unmarked) [Example 29, N-(3-(5-(4-((2,2-dimethyl-1,3-dioxolan-4-yl)methoxy)phenyl)-1H-pyrrolo[2,3-b]pyridine-3-carbonyl)-2,4-difluorophenyl)propane-1-sulfonamide] | + (3 ≤ PoC < 30) | ◯ (3 ≥ Ratio) | – | ++ (100 ≥ ratio > 10) | ++ (100 ≥ ratio > 10) | – | –
6 | CCCS(=O)(=O)Nc1ccc(F)c(C(=O)c2c[nH]c3ncc(-c4ccc(OCC5COC(C)(C)O5)cc4Cl)cc23)c1F (centres unmarked) [Example 25, N-(3-(5-(2-chloro-4-((2,2-dimethyl-1,3-dioxolan-4-yl)methoxy)phenyl)-1H-pyrrolo[2,3-b]pyridine-3-carbonyl)-2,4-difluorophenyl)propane-1-sulfonamide] | + (3 ≤ PoC < 30) | ◯ (3 ≥ Ratio) | – | + (10 ≥ ratio > 3) | + (10 ≥ ratio > 3) | – | –
7 | CCCS(=O)(=O)Nc1ccc(F)c(C(=O)c2c[nH]c3ncc(-c4ccc(N5CCN(C(C)=O)CC5)cc4)cc23)c1F [Example 24, N-(3-(5-(4-(4-acetylpiperazin-1-yl)phenyl)-1H-pyrrolo[2,3-b]pyridine-3-carbonyl)-2,4-difluorophenyl)propane-1-sulfonamide] | + (3 ≤ PoC < 30) | ◯ (3 ≥ Ratio) | – | ++ (100 ≥ ratio > 10) | + (10 ≥ ratio > 3) | – | –
8 | O=C(c1c(F)ccc(NS(=O)(=O)Cc2ccccc2)c1F)c1c[nH]c2ncc(-c3ccc(F)cc3)cc12 [Example 28, N-(2,4-difluoro-3-(5-(4-fluorophenyl)-1H-pyrrolo[2,3-b]pyridine-3-carbonyl)phenyl)-1-phenylmethanesulfonamide] | ++ (1 ≤ PoC < 3) | ++ (100 ≥ ratio > 10) | – | ++ (100 ≥ ratio > 10) | ++ (100 ≥ ratio > 10) | – | –
9 | CCCS(=O)(=O)Nc1cc(Cl)cc(C(=O)c2c[nH]c3ncc(-c4ccc(Cl)cc4)cc23)c1 [Example 16, N-(3-chloro-5-(5-(4-chlorophenyl)-1H-pyrrolo[2,3-b]pyridine-3-carbonyl)phenyl)propane-1-sulfonamide] | ◯ (30 ≤ PoC) | ◯ (3 ≥ Ratio) | – | ◯ (3 ≥ Ratio) | ◯ (3 ≥ Ratio) | – | –
10 | CCCCS(=O)(=O)Nc1ccc(F)c(C(=O)c2c[nH]c3ncc(-c4ccc(F)cc4C)cc23)c1F [Example 19, N-(2,4-difluoro-3-(5-(4-fluoro-2-methylphenyl)-1H-pyrrolo[2,3-b]pyridine-3-carbonyl)phenyl)butane-1-sulfonamide] | + (3 ≤ PoC < 30) | ++ (100 ≥ ratio > 10) | – | ++ (100 ≥ ratio > 10) | ++ (100 ≥ ratio > 10) | – | –
11 | CCCS(=O)(=O)Nc1ccc(F)c(C(=O)c2c[nH]c3ncc(-c4ccc(OC)cc4OC)cc23)c1F [Example 104, N-(3-(5-(2,4-dimethoxyphenyl)-1H-pyrrolo[2,3-b]pyridine-3-carbonyl)-2,4-difluorophenyl)propane-1-sulfonamide] | + (3 ≤ PoC < 30) | + (10 ≥ ratio > 3) | – | ++ (100 ≥ ratio > 10) | ++ (100 ≥ ratio > 10) | – | –
